{"source": "patent US20220401423A1", "about": "“METHODS FOR TREATING INFLAMMATORY BOWEL DISEASE” (Angion Biomedica Corp., priority 2019, published 2022)", "key": {"[1]": {"test_system": "Acetic acid-induced colitis", "test": "Acetic acid (AA) induced colitis mouse model", "type": "in vivo", "text": "Acetic acid-induced colitis is a common experimental animal model for IBD. Animals treated with acetic acid develop many pathological and histopathological characteristics in common with human ulcerative colitis. Rectal administration of acetic acid damages the mucosal epithelium and induces ulcerative colitis. The severity of the mucosal lesions that develop in acetic acid-induced colitis depends on the acetic acid concentration and the length of exposure. For example, injection of 25% acetic acid (AA) into the gastric lumen causes larger ulcerative lesions than injection of 5% acetic acid. Different concentrations of acetic acid and different exposure times have been reported to induce IBD in a rat model. Transmural necrosis in all layers of the bowel wall, severe neutrophil infiltration of the intestinal tissue, goblet cell depletion, edema, and submucosal ulceration are common manifestations of this model. Bloody diarrhea, reduction of the intestinal mucus, decreased nucleic acid (DNA and RNA) and total protein content, and increased colon weight and vascular permeability have also been observed. […] Acetic acid-induced colitis is also associated with changes NF-κB, inhibitor of κB (IκB) and IκB kinase expression.\nMale CD-1 mice were infused with 4% AA in saline in 150 μL volume through rectal enema under isoflurane anesthesia. A sham group (n=6) received an equivalent volume of saline.\nThe remaining AA-treated mice (n=9 for each group) were then randomized to vehicle and/or Compound 1 treatment at 50 mg/kg, PO, BID for 3 days."}, "TNBS-induced colitis [2]": {"test_system": "TNBS-induced colitis", "test": "TNBS-induced IBD/acute colitis mouse model, dose response (Example 3)", "type": "in vivo", "text": "Intracolonic administration of TNBS (2,4,6-trinitrobenzenesulfonic acid)/ethanol induces a severe illness characterized by bloody diarrhea and a dramatic loss of body weight during the first week with increased colon damage score (Mateus, V., et al. Clin. Exp. Gastroenterol. 2018; 11:325-334). TNBS-induced colitis, characteristic of acute colitis and the early phase of IBD, is a commonly utilized animal model in rodents that shares significant properties with human Crohn's disease. Advantages of this model include reproducibility and technical simplicity (Filipescu, I. E., et al. PLoS One 2018 Aug. 23; 13(8):e0202929). The use of TNBS-induced colitis has been valuable in elucidating the mechanisms that mediate disease immune-pathogenesis. TNBS-induced colitis is a well-validated animal model to assess compounds with potential therapeutic effects such as anti-TNFα, corticosteroids, natural compounds and traditional medicine (Mateus 2018; Filipescu 2018; Wirtz, S. et al. Nat. Protoc. 2017 July; 12(7):1295-1309). Compound 1 was therefore tested in the well-established model of TNBS-induced IBD/Acute Colitis.\nIn this IBD model, 2,4,6-trinitrobenzenesulfonic acid (TNBS) was used to induce disease. The inflammatory bowel disease (IBD)/acute colitis model was conducted in male CD-1 mice, body weights 30-35 grams, from Charles River Laboratories (CRL). After receipt from the vendor, animals were acclimatized to the animal facility at least 5 days following the animal facility standard operating procedures. All animals were fed the normal chow diet, had access to water ad libitum and housed in a single room of the animal facility with a 12:12 hr light-dark cycle and independent ventilation, temperature and humidity control.\nCompound 1 was dissolved in distilled water at 0.9 mg/mL, 2.7 mg/mL and 8.1 mg/mL, and 200 μL was administered via oral gavage into each mouse.\nMale CD-1 mice were starved overnight. Then, mice (n=33) were infused with […] (2 mg/mouse) in 50% ethanol in a 100 μL volume via rectal enema under isoflurane anesthesia. A sham group (n=6) received an equal volume of 50% ethanol. […] Remaining Sham (n=4) and TNBS mice (n=7/group) were randomized to vehicle or Compound 1 treatment at 5 mg/kg, 15 mg/kg, and 45 mg/kg, PO, BID for 4 days.\nAfter 4 days of Compound 1 or vehicle treatment, mice were sacrificed. Body weight (FIG. 5), colon length (FIG. 6 and FIG. 8), colon weight (FIG. 7), and gross morphological score/disease severity scores (FIG. 9; normal=0 and severe=4) were recorded. Blood/serum was collected. The mid and distal part of the colon was fixed in 10% neutral buffered formalin and the proximal part of the colon was snap frozen in liquid nitrogen and stored at minus 80° C. until use.\nHistological scoring. After overnight fixation in formalin, tissues were dehydrated (graded alcohols) and cleared (xylene) before being embedded in paraffin wax. Sections of tissue were cut and stained with hematoxylin and eosin (H & E) and scored in a blinded manner (FIG. 10). Histological scoring was based on a semi-quantitative scoring system as published (Lab Invest. 1993 August; 69(2):238-49). The following were ranked: the extent of the destruction of normal mucosal architecture (0, normal; 1, 2, and 3, mild, moderate, and extensive damage, respectively), presence and degree of cellular infiltration (0, normal; 1, 2, and 3, mild, moderate, and transmural infiltration, respectively), extent of muscle thickening (0, normal; 1, 2, and 3, mild, moderate, and extensive thickening, respectively), crypt damage/goblet cell depletion (0, no loss, 1, 2, 3 for mild, moderate and extensive loss of goblet cells respectively (FIG. 11). The scores for each feature were summed with a maximum possible colon injury score of 12 (FIG. 12).\nAlcian Blue/Fast red staining. Formalin fixed, paraffin embedded colon tissue sections were used for Alcian blue staining to evaluate crypt damage/goblet cell loss. […]"}, "[3]": {"test_system": "DSS-induced chronic colitis/IBD", "test": "DSS-induced chronic colitis/IBD mouse model", "type": "in vivo", "conditions": "50 mg/kg, PO, BID, started 72 hours after DSS, 4 weeks; for colon length: compared to DSS-vehicle cohort", "text": "DSS is a sulfated polymer that alters tight junction proteins, leading to the disruption of the intestinal barrier, and is toxic to epithelial cells. Results obtained in DSS-induced animal IBD models have helped to understand the pathogenesis of IBD and to screen potential therapeutic agents. DSS-induced IBD is simple and reproducible and results in symptoms resembling those of ulcerative colitis. The development of acute, chronic, or relapsing symptoms of IBD is dose-dependent, and the molecular weight of the DSS is key not only in the induction of colitis but also in the location of induction. […] Various DSS dosage and duration are used to induce IBD in some animal models. Following DSS administration, animals usually develop colitis with weight loss and severe, bloody diarrhea. DSS colitis is characterized by mucosal ulceration, leukocyte infiltration, intestinal crypt distortion and epithelial hyperplasia.\nAdult male CD-1 mice were fed 3% DSS in drinking water for 5 days with alternate cycles of normal drinking water for 5 days and continued a total of 3 DSS cycles in 4 weeks. This model has been established to induce chronic colitis/IBD. Vehicle (n=10/group) or Compound 1 (50 mg/kg, PO, BID) were administered 72 hours after DSS and continued treatment for 4 weeks, then all mice were sacrificed. A small group (n=6) with normal drinking water was included as a sham control. Gross morphological and histopathological end points were evaluated. Additionally, tissue from the middle colon (100 mg) from all groups was subjected to hydroxyproline assay for collagen estimation as a fibrotic end point."}, "TNBS-induced colitis [4]": {"test_system": "TNBS-induced colitis", "test": "TNBS-induced colitis mouse model, 50 mg/kg (Example 5)", "type": "in vivo", "experimental": "Using the same TNBS mouse model for IBD as described in Example 3, an experiment was performed with a 50 mg/kg dose of Compound 1, as described below.\nMale CD-1 mice were infused with TNBS (2 mg/mouse) in 45% ethanol and 5% PBS in 150 μL volume through rectal enema under isoflurane anesthesia. A sham group (n=6) received an equal volume of 45% ethanol and PBS mixture.\nRemaining TNBS mice (n=12/group) were randomized to vehicle or Compound 1 at 50 mg/kg, PO, BID for 3 days."}, "collagen levels": {"test_system": "collagen levels", "test": "Antifibrotic activity, collagen levels (FIG. 23)", "conditions": "model not stated"}, "[5]": {"conditions": "50 mg/kg, PO, BID for 3 days, started 72 hours after AA, compared to vehicle cohort"}, "[6]": {"conditions": "15 mg/kg and 45 mg/kg, BID, PO, 4 days, started 3 days after TNBS"}, "[7]": {"conditions": "15 mg/kg and 45 mg/kg, BID, PO, 4 days, compared to pre-treatment and vehicle treated animals"}, "[8]": {"conditions": "50 mg/kg, PO, BID for 3 days, started 72 hours after TNBS, compared to vehicle cohort"}}}
{"molecule": "COC(=O)c1ccc2c(n1)NC(=O)/C2=C(\\Nc1ccc(N(C)C(=O)CN2CCN(C)CC2)cc1)c1ccccc1", "note": "[Compound 1, (Z)-methyl 3-(((4-(N-methyl-2-(4-methylpiperazin-1-yl)acetamido)phenyl)amino)(phenyl)methylene)-2-oxo-2,3-dihydro-1H-pyrrolo[2,3-b]pyridine-6-carboxylate]", "values": [{"measurement": "decrease in colon length", "setting": "[1]; [5]", "result": "significantly mitigated the decrease"}, {"measurement": "gross morphological colon damage", "setting": "[1]; [5]", "result": "significantly mitigated"}, {"measurement": "histopathological colon damage (mucosal wall thickness, crypt/villi architecture)", "setting": "[1]; [5]", "result": "significantly mitigated"}, {"measurement": "AA-induced colitis (colon length, colon gross damage score, histopathological damage score, Alcian blue, H&E staining)", "setting": "[1]; FIG. 2A-2E", "result": "significantly decreased"}, {"measurement": "MPO-staining of colon tissue", "setting": "TNBS-induced colitis [2]; 5 mg/kg and higher, BID, PO, 4 days, versus TNBS+vehicle treated animals", "result": "significantly decreased"}, {"measurement": "body weight", "setting": "TNBS-induced colitis [2]; [6]", "result": "significantly restored"}, {"measurement": "colon length", "setting": "TNBS-induced colitis [2]; [6]", "result": "significantly restored"}, {"measurement": "colon weight", "setting": "TNBS-induced colitis [2]; [6]", "result": "significantly restored"}, {"measurement": "TNBS-induced goblet cell loss (Alcian Blue staining)", "setting": "TNBS-induced colitis [2]; [7]", "result": "significantly reduced"}, {"measurement": "colon histology (H&E histological scoring)", "setting": "TNBS-induced colitis [2]; [7]", "result": "markedly improved"}, {"measurement": "Disease Severity Index", "setting": "TNBS-induced colitis [2]; 15 mg/kg and 45 mg/kg, BID, PO, 4 days, score 0 (normal)-4 (severe)", "result": "marked improvement"}, {"measurement": "F4/80-staining of colon tissue", "setting": "TNBS-induced colitis [2]; 15 mg/kg and higher, BID, PO, 4 days, versus TNBS+vehicle treated animals", "result": "significantly decreased"}, {"measurement": "IBD symptoms (body weight, colon length, colon weight, disease severity index)", "setting": "TNBS-induced colitis [2]; FIG. 5-9", "result": "recover from IBD symptoms"}, {"measurement": "macroscopic colon damage score (appearance, inflammation, rectal bleeding)", "setting": "[3]", "result": "decreased"}, {"measurement": "histopathological injury score (crypt damage, epithelial erosion, inflammatory cell infiltration)", "setting": "[3]; H&E stained colon sections", "result": "decreased"}, {"measurement": "colon length", "setting": "[3]", "result": "significantly increased"}, {"measurement": "colon length", "setting": "[3]; listed as test compound", "result": "significantly restored"}, {"measurement": "colonic hydroxyproline (HYP)", "setting": "[3]; middle colon tissue", "result": "decreased"}, {"measurement": "colon architecture (Alcian blue staining for goblet cells of crypt/villi)", "setting": "TNBS-induced colitis [4]; [8]", "result": "preserved"}, {"measurement": "colon damage score", "setting": "TNBS-induced colitis [4]; [8]", "result": "decreased"}, {"measurement": "colon histopathological score", "setting": "TNBS-induced colitis [4]; [8]", "result": "decreased"}, {"measurement": "colon length", "setting": "TNBS-induced colitis [4]; [8]", "result": "restored"}, {"measurement": "mortality", "setting": "TNBS-induced colitis [4]; [8]", "result": "significantly decreased"}, {"measurement": "TNBS-induced increase in serum cytokines (interleukin-1α, TNFα, PDGF)", "setting": "TNBS-induced colitis [4]; 50 mg/kg, PO, BID for 3 days, serum", "result": "significantly blocked"}, {"measurement": "IBD symptoms (colon length, colon gross damage score, Alcian blue staining of goblet cells, colon histopathological score)", "setting": "TNBS-induced colitis [4]; FIG. 25A-25F", "result": "recover from IBD symptoms"}, {"measurement": "survival", "setting": "TNBS-induced colitis [4]; TNBS induced colitis mortality model, FIG. 3", "result": "increased"}, {"measurement": "collagen levels (antifibrotic activity)", "setting": "collagen levels", "result": "reduced"}]}
